# Data published in patent US20130029928A1 (priority 2010, published 2013).
# Read-outs that look alike come from different tables or passages of the source.
# Test: Phase I study CXR1002-001: plasma pharmacokinetics (LC-MS/MS)
# Type: in vivo, human
# Conditions: human, plasma, oral, person, plasma, read-out: Concentration; for concentration at 336 h: 336 hr (Day 15); for concentration at 360 h: 360 hr (Day 16); for concentration at 504 h: 504 hr (Day 22); for concentration at 528 h: 528 hr (Day 23); for concentration at 672 h: 672 hr (Day 29); for concentration at 696 h: 696 hr (Day 30); for concentration at 840 h: 840 hr (Day 36); for concentration at 864 h: 864 hr (Day 37); for concentration at 24 h: 24 hr (Day 2); for concentration at 168 h: 168 hr (Day 8)
# Text: PK samples, PD (fasting) samples, blood glucose, and blood triglyceride samples, were taken over a 6-week period.
# Dose limiting toxicity (DLT) will be based on the toxicity assessments over the first 3-week period of the repeat dosing schedule. PK samples (single blood sample) were taken on the following basis: • Every 6 weeks during the repeat dosing phase • If dosing is interrupted or stopped, samples will be taken at intervals according to patient convenience • PK sampling for safety evaluation may take place at any time, as clinically indicated
# Plasma samples were collected after the single 50 mg dose at the following timepoints: Pre-dose, and then 0.25, 0.5, 0.75, 1, 1.5, 2, 3, 4, 6, 24, 48, and 72 hours after administration and then once weekly at weeks 2, 3, 4, 5, and 6 (days 8, 15, 22, 29, and 36). For patients treated with the weekly repeat dose, plasma samples were collected at the following timepoints: Pre-dose and then 2, 3, 4 and 24 hours after administration for a total of 6 weeks. Thereafter a single sample was collected every 6 weeks for monitoring of exposure during long term treatment. Plasma samples were processed at site and stored at −80° C. prior to batch shipment to the analytical laboratory.
smiles,measurement,setting,value
O=C(O)C(F)(F)C(F)(F)C(F)(F)C(F)(F)C(F)(F)C(F)(F)C(F)(F)F [CXR1002],concentration at 192 h,"600 mg, Patient 021, 600 mg, 192 hr (Day 9)",479 µM
same,concentration at 336 h,"600 mg, Patient 021, 600 mg",412 µM
same,concentration at 338 h,"600 mg, Patient 021, 600 mg",650 µM
same,concentration at 339 h,"600 mg, Patient 021, 600 mg",653 µM
same,concentration at 340 h,"600 mg, Patient 021, 600 mg",633 µM
same,concentration at 360 h,"600 mg, Patient 021, 600 mg",604 µM
same,concentration at 504 h,"600 mg, Patient 021, 600 mg",605 µM
same,concentration at 506 h,"600 mg, Patient 021, 600 mg",734 µM
same,concentration at 507 h,"600 mg, Patient 021, 600 mg",654 µM
same,concentration at 508 h,"600 mg, Patient 021, 600 mg",722 µM
same,concentration at 528 h,"600 mg, Patient 021, 600 mg",678 µM
same,concentration at 672 h,"600 mg, Patient 021, 600 mg",613 µM
same,concentration at 674 h,"600 mg, Patient 021, 600 mg",681 µM
same,concentration at 675 h,"600 mg, Patient 021, 600 mg",847 µM
same,concentration at 676 h,"600 mg, Patient 021, 600 mg",845 µM
same,concentration at 696 h,"600 mg, Patient 021, 600 mg",799 µM
same,concentration at 840 h,"600 mg, Patient 021, 600 mg",779 µM
same,concentration at 842 h,"600 mg, Patient 021, 600 mg",968 µM
same,concentration at 843 h,"600 mg, Patient 021, 600 mg",928 µM
same,concentration at 844 h,"600 mg, Patient 021, 600 mg",981 µM
same,concentration at 864 h,"600 mg, Patient 021, 600 mg",995 µM
same,concentration at 2 h,"600 mg, Patient 022, 600 mg",193 µM
same,concentration at 3 h,"600 mg, Patient 022, 600 mg",196 µM
same,concentration at 4 h,"600 mg, Patient 022, 600 mg",199 µM
same,concentration at 24 h,"600 mg, Patient 022, 600 mg",157 µM
same,concentration at 168 h,"600 mg, Patient 022, 600 mg",143 µM
same,concentration at 170 h,"600 mg, Patient 022, 600 mg",310 µM
same,concentration at 171 h,"600 mg, Patient 022, 600 mg",270 µM
same,concentration at 172 h,"600 mg, Patient 022, 600 mg",276 µM
same,concentration at 192 h,"600 mg, Patient 022, 600 mg, 192 hr (day 9)",298 µM
same,concentration at 336 h,"600 mg, Patient 022, 600 mg",289 µM
same,concentration at 338 h,"600 mg, Patient 022, 600 mg",433 µM
same,concentration at 339 h,"600 mg, Patient 022, 600 mg",433 µM
same,concentration at 340 h,"600 mg, Patient 022, 600 mg",405 µM
same,concentration at 360 h,"600 mg, Patient 022, 600 mg",427 µM
same,concentration at 504 h,"600 mg, Patient 022, 600 mg",426 µM
same,concentration at 506 h,"600 mg, Patient 022, 600 mg",441 µM
same,concentration at 507 h,"600 mg, Patient 022, 600 mg",562 µM
same,concentration at 508 h,"600 mg, Patient 022, 600 mg",519 µM
same,concentration at 528 h,"600 mg, Patient 022, 600 mg",596 µM
same,concentration at 2 h,"600 mg, Patient 023, 600 mg",208 µM
same,concentration at 3 h,"600 mg, Patient 023, 600 mg",233 µM
same,concentration at 4 h,"600 mg, Patient 023, 600 mg",236 µM
same,concentration at 24 h,"600 mg, Patient 023, 600 mg",221 µM
same,concentration at 168 h,"600 mg, Patient 023, 600 mg",204 µM
same,concentration at 170 h,"600 mg, Patient 023, 600 mg",336 µM
same,concentration at 171 h,"600 mg, Patient 023, 600 mg",337 µM
same,concentration at 172 h,"600 mg, Patient 023, 600 mg",391 µM
same,concentration at 192 h,"600 mg, Patient 023, 600 mg, 192 hr (day 9)",400 µM
same,concentration at 336 h,"600 mg, Patient 023, 600 mg",432 µM
same,concentration at 338 h,"600 mg, Patient 023, 600 mg",495 µM
same,concentration at 339 h,"600 mg, Patient 023, 600 mg",613 µM
same,concentration at 340 h,"600 mg, Patient 023, 600 mg",636 µM
same,concentration at 360 h,"600 mg, Patient 023, 600 mg",616 µM
same,concentration at 2 h,"600 mg, Patient 024, 600 mg",91.6 µM
same,concentration at 3 h,"600 mg, Patient 024, 600 mg",188 µM
same,concentration at 4 h,"600 mg, Patient 024, 600 mg",283 µM
same,concentration at 24 h,"600 mg, Patient 024, 600 mg",258 µM
same,concentration at 168 h,"600 mg, Patient 024, 600 mg",212 µM
same,concentration at 170 h,"600 mg, Patient 024, 600 mg",436 µM
same,concentration at 171 h,"600 mg, Patient 024, 600 mg",441 µM
same,concentration at 172 h,"600 mg, Patient 024, 600 mg",439 µM
same,concentration at 192 h,"600 mg, Patient 024, 600 mg, 192 hr (Day 9)",418 µM
same,concentration at 336 h,"600 mg, Patient 024, 600 mg",488 µM
same,concentration at 338 h,"600 mg, Patient 024, 600 mg",578 µM
same,concentration at 339 h,"600 mg, Patient 024, 600 mg",533 µM
same,concentration at 340 h,"600 mg, Patient 024, 600 mg",628 µM
same,concentration at 360 h,"600 mg, Patient 024, 600 mg",647 µM
same,concentration at 504 h,"600 mg, Patient 024, 600 mg",691 µM
same,concentration at 506 h,"600 mg, Patient 024, 600 mg",642 µM
same,concentration at 507 h,"600 mg, Patient 024, 600 mg",706 µM
same,concentration at 508 h,"600 mg, Patient 024, 600 mg",630 µM
same,concentration at 528 h,"600 mg, Patient 024, 600 mg",859 µM
same,concentration at 672 h,"600 mg, Patient 024, 600 mg",788 µM
same,concentration at 674 h,"600 mg, Patient 024, 600 mg",694 µM
same,concentration at 675 h,"600 mg, Patient 024, 600 mg",779 µM
same,concentration at 676 h,"600 mg, Patient 024, 600 mg",780 µM
same,concentration at 696 h,"600 mg, Patient 024, 600 mg",811 µM
same,concentration at 840 h,"600 mg, Patient 024, 600 mg",814 µM
same,concentration at 842 h,"600 mg, Patient 024, 600 mg",898 µM
same,concentration at 843 h,"600 mg, Patient 024, 600 mg",904 µM
same,concentration at 844 h,"600 mg, Patient 024, 600 mg",908 µM
same,concentration at 864 h,"600 mg, Patient 024, 600 mg",966 µM
same,concentration at 2 h,"750 mg, Patient 026, 750 mg",95.8 µM
same,concentration at 3 h,"750 mg, Patient 026, 750 mg",125 µM
same,concentration at 4 h,"750 mg, Patient 026, 750 mg",149 µM
same,concentration at 24 h,"750 mg, Patient 026, 750 mg",200 µM
same,concentration at 168 h,"750 mg, Patient 026, 750 mg",186 µM
same,concentration at 170 h,"750 mg, Patient 026, 750 mg",270 µM
same,concentration at 171 h,"750 mg, Patient 026, 750 mg",301 µM
same,concentration at 172 h,"750 mg, Patient 026, 750 mg",339 µM
same,concentration at 192 h,"750 mg, Patient 026, 750 mg, 192 hr (Day 9)",398 µM
same,concentration at 336 h,"750 mg, Patient 026, 750 mg",352 µM
same,concentration at 338 h,"750 mg, Patient 026, 750 mg",399 µM
same,concentration at 339 h,"750 mg, Patient 026, 750 mg",506 µM
same,concentration at 340 h,"750 mg, Patient 026, 750 mg",492 µM
same,concentration at 360 h,"750 mg, Patient 026, 750 mg",625 µM
same,concentration at 504 h,"750 mg, Patient 026, 750 mg",479 µM
same,concentration at 506 h,"750 mg, Patient 026, 750 mg",625 µM
same,concentration at 507 h,"750 mg, Patient 026, 750 mg",546 µM
same,concentration at 508 h,"750 mg, Patient 026, 750 mg",582 µM
same,concentration at 528 h,"750 mg, Patient 026, 750 mg",608 µM
same,concentration at 672 h,"750 mg, Patient 026, 750 mg",594 µM
same,concentration at 674 h,"750 mg, Patient 026, 750 mg",606 µM
same,concentration at 675 h,"750 mg, Patient 026, 750 mg",655 µM
same,concentration at 676 h,"750 mg, Patient 026, 750 mg",698 µM
same,concentration at 696 h,"750 mg, Patient 026, 750 mg",732 µM
same,concentration at 840 h,"750 mg, Patient 026, 750 mg",728 µM
same,concentration at 842 h,"750 mg, Patient 026, 750 mg",824 µM
same,concentration at 843 h,"750 mg, Patient 026, 750 mg",776 µM
same,concentration at 844 h,"750 mg, Patient 026, 750 mg",822 µM
same,concentration at 864 h,"750 mg, Patient 026, 750 mg",812 µM
same,concentration at 2 h,"750 mg, Patient 027, 750 mg",110 µM
same,concentration at 4 h,"750 mg, Patient 027, 750 mg",224 µM
same,concentration at 24 h,"750 mg, Patient 027, 750 mg",199 µM
